Test results: publication PMC9921777, “Coumarin-Based Sulfonamide Derivatives as Potential DPP-IV Inhibitors: Pre-ADME Analysis, Toxicity Profile, Computational Analysis, and In Vitro Enzyme Assay” (Molecules, 2023)

How the values were obtained:
[1] = target: DPP-IV enzyme (Homo sapiens, UniProt P27487); experiment: In vitro DPP-IV enzyme inhibition assay (Cayman Chemical kit, item 700210); details: for inhibition at 250 µM: read-out: % Inhibition (at Conc.)
[2] = test system: DPP-IV; details: DPP-IV enzyme assay of coumarin; cited from earlier work

DPP-IV enzyme, sequence (P27487 whole entry): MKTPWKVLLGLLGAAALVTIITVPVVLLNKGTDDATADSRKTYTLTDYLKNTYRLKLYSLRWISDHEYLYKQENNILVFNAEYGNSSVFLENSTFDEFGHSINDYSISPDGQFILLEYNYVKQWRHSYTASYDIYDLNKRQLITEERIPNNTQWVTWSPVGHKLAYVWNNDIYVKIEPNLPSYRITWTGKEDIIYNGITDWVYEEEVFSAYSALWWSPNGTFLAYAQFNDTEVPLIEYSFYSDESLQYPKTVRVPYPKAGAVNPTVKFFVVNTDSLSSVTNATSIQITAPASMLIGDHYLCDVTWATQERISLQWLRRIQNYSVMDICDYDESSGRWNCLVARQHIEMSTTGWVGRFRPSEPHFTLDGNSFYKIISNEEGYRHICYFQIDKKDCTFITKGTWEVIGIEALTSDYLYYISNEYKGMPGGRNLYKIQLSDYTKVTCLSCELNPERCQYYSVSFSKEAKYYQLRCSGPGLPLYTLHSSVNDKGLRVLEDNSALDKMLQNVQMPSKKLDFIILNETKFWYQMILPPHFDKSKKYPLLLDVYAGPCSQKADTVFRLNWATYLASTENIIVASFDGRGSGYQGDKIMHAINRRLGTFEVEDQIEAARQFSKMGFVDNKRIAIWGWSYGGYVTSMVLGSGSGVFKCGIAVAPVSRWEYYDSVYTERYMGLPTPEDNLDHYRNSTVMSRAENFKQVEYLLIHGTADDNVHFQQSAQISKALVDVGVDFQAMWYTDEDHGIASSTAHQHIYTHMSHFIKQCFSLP

Structure (SMILES) | IC50 [1] | inhibition at 250 µM [1] | IC50 [2]
O=c1oc2ccc(S(=O)(=O)Nc3ccccc3)cc2cc1Cl [6a, 3-Chloro-2-oxo-2H-1-benzopyran-6-(N-phenyl)sulfonamide] | 14.5 ± 1.2 µM | 93.5 ± 2.02% | –
O=c1oc2ccc(S(=O)(=O)Nc3ccccn3)cc2cc1Cl [6b, 3-Chloro-2-oxo-N-(pyridin-2-yl)-2H-chromene-6-sulfonamide] | 15.7 ± 0.98 µM | 91.15 ± 0.9% | –
O=c1oc2ccc(S(=O)(=O)Nc3cccnc3)cc2cc1Cl [6c, 3-Chloro-2-oxo-N-(pyridin-3-yl)-2H-chromene-6-sulfonamide] | 16.3 ± 2.04 µM | 90.3 ± 2.04% | –
O=c1oc2ccc(S(=O)(=O)Nc3ccncc3)cc2cc1Cl [6d, 3-Chloro-2-oxo-N-(pyridin-4-yl)-2H-chromene-6-sulfonamide] | 15.2 ± 1.02 µM | 92.4 ± 1.11% | –
O=c1oc2ccc(S(=O)(=O)Nc3nc4ccccc4[nH]3)cc2cc1Cl [6i, 3-Chloro-2-oxo-2H-1-benzopyran-6-(N-benzimidazole)sulfonamide] | 11 ± 1 µM | 95.8 ± 1.08% | –
Cc1ccc(NS(=O)(=O)c2ccc3oc(=O)c(Cl)cc3c2)cc1 [6r, 3-Chloro-2-oxo-N-(p-tolyl)-2H-chromene-6-sulfonamide] | 12.92 ± 0.11 µM | 95.4 ± 1.1% | –
Cc1ccccc1NS(=O)(=O)c1ccc2oc(=O)c(Cl)cc2c1 [6s, 3-Chloro-2-oxo-N-(o-tolyl)-2H-chromene-6-sulfonamide] | 18.29 ± 0.1 µM | 89.3 ± 0.9% | –
O=c1oc2ccc(S(=O)(=O)NCc3ccccc3)cc2cc1Cl [6t, N-benzyl-3-chloro-2-oxo-2H-chromene-6-sulfonamide] | 17.73 ± 0.02 µM | 88.3 ± 2.06% | –
O=c1ccc2ccccc2o1 [coumarin] | – | – | 54.8 µM
